We go through 1 molecule from patent US20130059896A1, “5-(1H-PYRAZOL-5-YL)THIAZOLE-BASED COMPOUNDS FOR THE TREATMENT OF DISEASES AND DISORDERS OF THE EYE” (priority 2010, published 2013).

This experiment relates to wild-type C57:129 F2 hybrid mice. The experiment is described as follows: Dexamethasone-induced ocular hypertension model (IOP by TonoLab tonometer). The experiment is classed as in vivo, mouse. Here is the method:
Twenty eight day mouse Alzet mini-osmotic pumps (DURECT Corp., Cupertino, Calif.) were filled with a solution of water soluble dexamethasone (dex) in PBS (Sigma, St. Louis, Mo.) so that they would release roughly 0.1 mg of dex per day. Once the pumps were filled with the dex, the pumps were allowed to equilibrate in PBS at 37° C. for 60 hours. The equilibrated pumps were surgically placed subcutaneously on the backs of wild-type C57:129 F2 hybrid mice weighing between 25 and 35 grams. Surgical incisions were sutured with 5-0 braided silk (ROBOZ, Gaithersburg, Md.) and treated with antibiotic ointment throughout the entire duration of study. Surgical incisions were glued with TissueMend II (Webster Veterinary, Houston, Tex.). Analgesic (buprenorphine) was given through IP injection the day of surgery and 24 hours after surgery. Intraocular pressure (IOP) was measured on these mice using a TonoLab (Colonial Medical Supply Co., Franconia, N.H.) tonometer. Mice were mildly sedated with isoflurane and topically anesthetized with 0.5% proparacaine (Akorn, Buffalo Grove, Ill.) before IOP measurements were taken. Baseline IOP was measured 1 day prior to mini-pump implantation. After mini-pump implantation, IOP measurements were taken 2-3 times per week for 4 weeks. Pharmacology studies with potential ocular hypotensive compounds were performed between 21 and 28 days after implantation.

As for `O=C(C[C@@H]1CCCN1)Nc1ncc(-c2cc(C(F)F)nn2-c2c(Cl)cccc2Cl)s1` [Compound 9, (S)—N-(5-(1-(2,6-dichlorophenyl)-3-(difluoromethyl)-1H-pyrazol-5-yl)thiazol-2-yl)-2-(pyrrolidin-2-yl)acetamide], the “Average changes in IOP measured from time of dosing” value reads like this: (3 μg/eye, 0 hr) 0.00 (0.0); (3 μg/eye, 2 hr) −4.10 (2.6); (3 μg/eye, 4 hr) −3.81 (3.8); (3 μg/eye, 6 hr) −3.19 (3.2); (15 μg/eye, 0 hr) 0.00 (0.0); (15 μg/eye, 2 hr) −4.25 (2.7). Also, the “Average changes in IOP measured from time of dosing” value reads like this: (15 μg/eye, 4 hr) −4.88 (5.1); (15 μg/eye, 6 hr) −4.88 (4.2); (30 μg/eye, 0 hr) 0.00 (0.0); (30 μg/eye, 2 hr) −3.33 (4.2); (30 μg/eye, 4 hr) −2.86 (1.1); (30 μg/eye, 6 hr) −2.29 (2.2). Further, the “Effect in the ocular hypertension model (FIG. 1)” value (dose response, FIG. 1) is on record as “dose dependent effect”.
